This passage reports IC50 and PF50 results from patent US20110053923A1, “CHEMICAL COMPOUNDS 610” (AstraZeneca, priority 2008, published 2011).

Like-named read-outs stand apart in the source and are kept apart here.

For one assay, the system named is HT29 cells. Put plainly: Cellular SRB assay (Test (d)), potentiation of carboplatin. To be noted: for IC50: geometric mean. The assay is classed as cell-based. As for the experimental part:
(d) Cellular—SRB Assay The potentiation factor (PF50) for compounds is a measure of the fold increase in effect of a chemotherapeutic agent, when used in combination with an ATR inhibitor. Specifically, this is calculated as a ratio of the IC50 of control cell growth in the presence of a chemotherapeutic agent, typically carboplatin, divided by the IC50 of cell growth in the presence of this agent and the ATR inhibitor of interest. For this purpose, HT29 cells were seeded at the appropriate density to ensure exponential growth throughout the time of the assay (typically 1000-1500 cells) in each well of a 96-well plate, in a volume of 80 μl and incubated overnight at 37° C. Subsequently, cells were dosed with either DMSO vehicle, or treated with test compounds at fixed concentrations (typically 1, 0.3 & 0.1 μM). Following a one hour incubation at 37° C., the cells were further treated with a 10 point dose response of the chemotherapeutic agent, based on it's known sensitivity (typically 30-0.001 ug/ml for carboplatin). Cells were left to grow for 5 days at 37° C., after which time cell growth was assessed using the sulforhodamine B (SRB) assay (Skehan, P et al, 1990 New colorimetric cytotoxic assay for anticancer-drug screening. J. Natl. Cancer Inst. 82, 1107-1112.). Specifically, the media was removed and cells fixed with 100 μl of ice cold 10% (w/v) trichloroacetic acid. The plates were then incubated at 4° C. for 20 minutes prior to washing 4 times with water. Each well was then stained with 100 μL of 0.4% (w/v) SRB in 1% acetic acid for 20 minutes before a further 4 washes with 1% acetic acid. Plates were then dried for 2 hours at room temperature and the dye was solubilized by the addition of 100 μL Tris Base pH 8.5 into each well. Plates were shaken before measuring optical density at 564 nm (OD564). In order to calculate the PF50, the OD564 values obtained for the dose-response curve of chemotherapeutic agent were expressed as a percentage of the value obtained from cells treated with vehicle alone. Similarly, to act as a control for inclusion of the ATR inhibitor, values from the chemotherapeutic agent tested in combination with a fixed ATR inhibitor concentration were expressed as a percentage of the value obtained from cells treated with the corresponding concentration of ATR inhibitor alone. From these internally-controlled curves, IC50 values were calculated and the PF50 was determined as the ratio of these values, as described above. Compounds are compared using the PF50 value at concentrations of ATR inhibitor that show minimal growth inhibition on their own.
On the technique in general: In SRB staining, fixed cells bind dye roughly in proportion to their protein.

The next assay addresses mTOR (Homo sapiens, UniProt P42345). Put plainly: Enzyme - mTOR Kinase Assay (Echo).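 Also: enzyme expressed in HEK293 cells, 2 h incubation at room temperature, read-out is phosphorylation of a biotinylated peptide substrate detected with an anti-phospho p70 S6 Kinase (T389) antibody, inhibition lowers signal.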 The assay is classed as biochemical. Conditions: recombinant FLAG-tagged mTOR (1362-2549); AlphaScreen; ATP 20 μM.
Another assay deals with T1, ATR (Homo sapiens, UniProt Q13535).
T1 construct: obtained from HeLa nuclear extract (CIL Biotech, Mons, Belgium) by immunoprecipitation with rabbit polyclonal antiserum raised to amino acids 400-480 of ATR; host or cells: HeLa nuclear extract
Put plainly: Enzyme Assay - ATR (Test (a)).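 Also: kinase activity of bead-bound ATR toward a GST-p53 N-terminal fragment substrate, 1 h at 37 °C, read by chemiluminescence, with inhibitor-free wells as control.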 Format: biochemical. To be noted: ATR immunoprecipitated from HeLa nuclear extract; 3 μM ATP; average of individual tests; read-out: ATR average IC50.

T1 sequence (Q13535 whole entry, the tested form may be a part): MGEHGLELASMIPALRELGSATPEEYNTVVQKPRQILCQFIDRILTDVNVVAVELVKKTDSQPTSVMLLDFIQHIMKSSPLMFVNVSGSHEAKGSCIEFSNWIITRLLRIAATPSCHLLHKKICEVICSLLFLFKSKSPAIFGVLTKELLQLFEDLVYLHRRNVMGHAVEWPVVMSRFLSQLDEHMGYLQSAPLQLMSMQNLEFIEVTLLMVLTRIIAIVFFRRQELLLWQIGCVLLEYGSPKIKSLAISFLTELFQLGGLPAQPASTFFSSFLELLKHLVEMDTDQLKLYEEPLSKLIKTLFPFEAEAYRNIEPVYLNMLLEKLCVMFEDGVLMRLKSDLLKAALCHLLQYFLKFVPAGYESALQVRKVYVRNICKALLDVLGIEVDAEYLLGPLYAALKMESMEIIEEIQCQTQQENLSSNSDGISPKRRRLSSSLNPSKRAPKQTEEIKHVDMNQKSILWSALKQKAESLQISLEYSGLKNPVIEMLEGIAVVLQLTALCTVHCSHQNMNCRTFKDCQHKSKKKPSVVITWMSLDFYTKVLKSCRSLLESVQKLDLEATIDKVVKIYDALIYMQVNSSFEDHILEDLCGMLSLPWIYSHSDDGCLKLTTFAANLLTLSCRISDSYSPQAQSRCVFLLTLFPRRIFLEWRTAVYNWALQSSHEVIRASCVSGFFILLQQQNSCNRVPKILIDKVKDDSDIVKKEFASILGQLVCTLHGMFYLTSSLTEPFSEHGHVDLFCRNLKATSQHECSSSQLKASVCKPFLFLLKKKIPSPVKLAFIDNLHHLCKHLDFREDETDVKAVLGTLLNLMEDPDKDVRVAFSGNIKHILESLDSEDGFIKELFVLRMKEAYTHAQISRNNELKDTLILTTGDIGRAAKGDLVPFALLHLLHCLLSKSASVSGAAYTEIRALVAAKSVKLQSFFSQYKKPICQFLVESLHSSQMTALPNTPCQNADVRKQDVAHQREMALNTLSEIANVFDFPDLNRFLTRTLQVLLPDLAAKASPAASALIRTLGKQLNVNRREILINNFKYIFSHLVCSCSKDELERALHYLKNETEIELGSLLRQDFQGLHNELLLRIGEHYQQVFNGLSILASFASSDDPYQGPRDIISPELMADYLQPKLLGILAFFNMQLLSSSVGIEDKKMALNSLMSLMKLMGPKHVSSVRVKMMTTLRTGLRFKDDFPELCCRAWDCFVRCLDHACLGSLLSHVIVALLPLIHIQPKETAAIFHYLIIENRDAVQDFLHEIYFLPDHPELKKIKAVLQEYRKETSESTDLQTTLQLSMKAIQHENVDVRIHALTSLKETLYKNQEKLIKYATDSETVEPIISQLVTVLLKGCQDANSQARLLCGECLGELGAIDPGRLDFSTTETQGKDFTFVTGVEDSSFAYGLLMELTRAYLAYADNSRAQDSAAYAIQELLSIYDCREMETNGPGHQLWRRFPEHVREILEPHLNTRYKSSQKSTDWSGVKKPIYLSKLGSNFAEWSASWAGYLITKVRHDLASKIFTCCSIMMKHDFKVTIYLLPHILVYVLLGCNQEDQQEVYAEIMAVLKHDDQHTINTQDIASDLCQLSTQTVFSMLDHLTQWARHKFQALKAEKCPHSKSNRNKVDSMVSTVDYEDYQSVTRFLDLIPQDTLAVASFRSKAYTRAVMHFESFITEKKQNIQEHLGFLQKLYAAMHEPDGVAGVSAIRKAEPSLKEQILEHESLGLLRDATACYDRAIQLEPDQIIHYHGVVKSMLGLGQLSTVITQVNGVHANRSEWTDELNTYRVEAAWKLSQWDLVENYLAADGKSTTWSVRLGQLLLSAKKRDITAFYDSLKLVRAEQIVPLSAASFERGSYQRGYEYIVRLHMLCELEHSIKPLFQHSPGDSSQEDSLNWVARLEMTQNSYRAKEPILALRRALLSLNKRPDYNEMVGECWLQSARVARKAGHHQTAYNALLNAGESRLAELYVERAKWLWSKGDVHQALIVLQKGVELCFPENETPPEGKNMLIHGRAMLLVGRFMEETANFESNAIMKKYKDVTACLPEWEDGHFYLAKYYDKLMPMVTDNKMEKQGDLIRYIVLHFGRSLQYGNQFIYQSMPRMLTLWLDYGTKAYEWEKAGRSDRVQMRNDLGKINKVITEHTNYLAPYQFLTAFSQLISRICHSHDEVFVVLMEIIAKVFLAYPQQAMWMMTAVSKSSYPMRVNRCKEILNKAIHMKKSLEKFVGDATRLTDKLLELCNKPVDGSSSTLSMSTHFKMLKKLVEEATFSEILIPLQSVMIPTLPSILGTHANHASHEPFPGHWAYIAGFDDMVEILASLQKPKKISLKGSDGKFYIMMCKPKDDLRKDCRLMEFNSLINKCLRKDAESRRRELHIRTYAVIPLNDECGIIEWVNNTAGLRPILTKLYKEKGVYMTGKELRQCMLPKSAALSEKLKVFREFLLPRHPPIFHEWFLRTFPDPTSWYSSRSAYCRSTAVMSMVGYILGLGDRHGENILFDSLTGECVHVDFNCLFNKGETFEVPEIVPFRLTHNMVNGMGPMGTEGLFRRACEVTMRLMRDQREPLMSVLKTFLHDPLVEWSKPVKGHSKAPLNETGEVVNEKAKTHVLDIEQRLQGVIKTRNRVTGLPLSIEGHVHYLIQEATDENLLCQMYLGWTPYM
T1 sequence (Q8WXE1 whole entry partner, the tested form may be a part): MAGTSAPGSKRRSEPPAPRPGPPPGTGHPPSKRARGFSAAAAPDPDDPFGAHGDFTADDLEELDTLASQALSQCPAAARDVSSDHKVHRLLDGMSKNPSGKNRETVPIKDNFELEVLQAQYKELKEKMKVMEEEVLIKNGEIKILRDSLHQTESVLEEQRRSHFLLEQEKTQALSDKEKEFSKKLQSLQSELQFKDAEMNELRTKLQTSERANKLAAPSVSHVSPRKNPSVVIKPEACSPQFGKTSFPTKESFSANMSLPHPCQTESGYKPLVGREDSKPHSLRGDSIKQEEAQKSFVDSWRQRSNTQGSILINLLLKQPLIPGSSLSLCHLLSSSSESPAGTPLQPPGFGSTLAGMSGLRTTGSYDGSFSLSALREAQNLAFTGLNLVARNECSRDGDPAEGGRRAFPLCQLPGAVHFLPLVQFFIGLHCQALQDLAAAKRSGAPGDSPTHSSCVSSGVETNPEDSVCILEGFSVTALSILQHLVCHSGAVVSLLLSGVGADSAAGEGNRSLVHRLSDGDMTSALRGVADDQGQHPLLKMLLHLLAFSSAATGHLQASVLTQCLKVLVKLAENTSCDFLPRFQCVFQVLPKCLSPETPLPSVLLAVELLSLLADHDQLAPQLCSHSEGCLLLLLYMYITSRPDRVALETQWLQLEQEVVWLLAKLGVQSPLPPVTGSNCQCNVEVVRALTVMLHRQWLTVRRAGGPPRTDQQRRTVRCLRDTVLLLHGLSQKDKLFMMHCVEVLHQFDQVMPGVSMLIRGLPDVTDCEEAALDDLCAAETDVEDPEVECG
mTOR, sequence (P42345 1362-2549): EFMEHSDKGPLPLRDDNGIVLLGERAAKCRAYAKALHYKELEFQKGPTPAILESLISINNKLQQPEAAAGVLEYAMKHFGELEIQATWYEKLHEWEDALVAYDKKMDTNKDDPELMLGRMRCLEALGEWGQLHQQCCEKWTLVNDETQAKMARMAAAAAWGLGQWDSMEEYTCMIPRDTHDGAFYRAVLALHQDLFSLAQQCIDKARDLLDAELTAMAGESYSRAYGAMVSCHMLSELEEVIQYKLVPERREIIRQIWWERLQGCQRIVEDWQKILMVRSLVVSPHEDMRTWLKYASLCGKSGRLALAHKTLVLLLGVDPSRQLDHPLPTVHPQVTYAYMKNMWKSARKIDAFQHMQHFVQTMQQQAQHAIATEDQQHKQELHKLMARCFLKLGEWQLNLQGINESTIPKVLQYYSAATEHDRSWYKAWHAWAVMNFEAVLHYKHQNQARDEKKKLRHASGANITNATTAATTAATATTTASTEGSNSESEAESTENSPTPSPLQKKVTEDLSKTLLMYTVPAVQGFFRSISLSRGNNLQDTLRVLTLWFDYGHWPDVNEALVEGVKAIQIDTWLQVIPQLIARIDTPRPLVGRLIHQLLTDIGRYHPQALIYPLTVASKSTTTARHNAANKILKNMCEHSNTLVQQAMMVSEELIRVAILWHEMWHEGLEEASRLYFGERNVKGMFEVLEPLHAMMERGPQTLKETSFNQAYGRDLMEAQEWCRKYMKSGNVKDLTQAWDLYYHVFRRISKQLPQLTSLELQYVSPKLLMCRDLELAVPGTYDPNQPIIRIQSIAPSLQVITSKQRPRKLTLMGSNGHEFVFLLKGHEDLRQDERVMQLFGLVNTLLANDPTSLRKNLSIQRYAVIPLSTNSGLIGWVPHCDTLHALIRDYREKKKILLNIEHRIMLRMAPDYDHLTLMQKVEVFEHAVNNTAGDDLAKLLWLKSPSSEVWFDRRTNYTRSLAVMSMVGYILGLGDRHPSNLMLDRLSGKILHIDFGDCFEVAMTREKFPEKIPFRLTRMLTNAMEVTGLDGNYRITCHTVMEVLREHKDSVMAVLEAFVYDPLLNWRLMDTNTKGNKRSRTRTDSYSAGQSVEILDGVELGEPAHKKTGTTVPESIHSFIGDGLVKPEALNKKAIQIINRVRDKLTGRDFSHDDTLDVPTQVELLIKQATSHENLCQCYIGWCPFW

In the case of `N.N.O=C([O-])C1(C(=O)[O-])CCC1.[Pt+2]` [Carboplatin, reference compound], in the assay on HT29 cells (Carboplatin alone, 5 days growth), the IC50 (commonly the midpoint of a concentration-inhibition curve) worked out at 3.97 mg/L.

Regarding `C[C@@H]1COCCN1c1cc(C2(S(C)(=O)=O)CC2)nc(-c2cccc3[nH]ccc23)n1` [Example 3.01, 4-{4-[(3R)-3-Methylmorpholin-4-yl]-6-[1-(methylsulfonyl)cyclopropyl]pyrimidin-2-yl}-1H-indole], the concentration for half-maximal inhibition (IC50) in the assay on HT29 cells (Homo sapiens, HT-29, 120 h, Carboplatin + 0.1 uM Example 3.01, 5 days growth, read-out: IC50) was 1.96 mg/L; in the assay with HT29 cells (Homo sapiens, HT-29, 120 h, Carboplatin + 0.3 uM Example 3.01, 5 days growth, read-out: IC50), 0.39 mg/L. Moreover, the PF50 in the assay on HT29 cells (potentiation factor of Carboplatin by 0.1 uM Example 3.01 (ratio of IC50 values)) is given as 2.02; in the assay on HT29 cells (potentiation factor of Carboplatin by 0.3 uM Example 3.01 (ratio of IC50 values)) it was 10.08.

For `C[C@@H]1COCCN1c1cc(C2(S(C)(=O)=O)CCOCC2)nc(-c2cc(C#N)cc3[nH]ccc23)n1` [Example 3.14, 4-{4-[(3R)-3-methylmorphohn-4-yl]-6-[4-(methylsulfonyl)tetrahydro-2H-pyran-4-yl]pyrimidin-2-yl}-1H-indole-6-carbonitrile], the figures for the IC50 at mTOR and on ATR were 0.692 µM and 0.0142 µM, respectively.

Consider `C[C@@H]1COCCN1c1cc(C2(S(C)(=O)=O)CCNCC2)nc(-c2cccc3[nH]ccc23)n1` [Example 3.15, 4-{4-[(3R)-3-Methylmorpholin-4-yl]-6-[4-(methylsulfonyl)piperidin-4-yl]pyrimidin-2-yl}-1H-indole], for which the 50% inhibitory concentration (IC50) at mTOR was found to be 0.98 µM; on ATR it was 0.00255 µM.

Take `C[C@@H]1COCCN1c1cc(C2(S(C)(=O)=O)CCC2)nc(-c2cccc3[nH]ccc23)n1` [Example 3.16, 4-{4-[(3R)-3-Methylmorpholin-4-yl]-6-[1-(methylsulfonyl)cyclobutyl]pyrimidin-2-yl}-1H-indole]: the IC50 at mTOR is 0.0858 µM; on ATR, 0.00199 µM.

As for `C[C@@H]1COCCN1c1cc(C2(S(=O)(=O)C3CC3)CC2)nc(-c2cccc3[nH]ccc23)n1` [Example 3.17, 4-{4-[1-(Cyclopropylsulfonyl)cyclopropyl]-6-[(3R)-3-methylmorpholin-4-yl]pyrimidin-2-yl}-1H-indole], the IC50 is 0.0978 µM on mTOR and 0.00226 µM at ATR.

As for `C[C@@H]1COCCN1c1cc(C2(S(=O)(=O)C3CC3)CCNCC2)nc(-c2cccc3[nH]ccc23)n1` [Example 3.18, 4-{4-[4-(Cyclopropylsulfonyl)piperidin-4-yl]-6-[(3R)-3-methylmorpholin-4-yl]pyrimidin-2-yl}-1H-indole], the IC50 on mTOR is 0.383 µM; on ATR, 0.00762 µM.

For the compound `C[C@@H]1COCCN1c1cc(C2(S(=O)(=O)C3CC3)CCOCC2)nc(-c2cccc3[nH]ccc23)n1` [Example 3.19, 4-{4-[4-(Cyclopropylsulfonyl)tetrahydro-2H-pyran-4-yl]-6-[(3R)-3-methylmorpholin-4-yl]pyrimidin-2-yl}-1H-indole], the values for the concentration for half-maximal inhibition (IC50) on mTOR and at ATR were 2.82 µM and 0.0976 µM, respectively.

Take `CCS(=O)(=O)C1(c2cc(N3CCOC[C@H]3C)nc(-c3cccc4[nH]ccc34)n2)CC1` [Example 3.20, 4-{4-[1-(Ethylsulfonyl)cyclopropyl]-6-[(3R)-3-methylmorpholin-4-yl]pyrimidin-2-yl}-1H-indole]: the half-inhibitory concentration (IC50) on mTOR worked out at 0.0711 µM; at ATR it was 0.0025 µM.

Turning to `CCS(=O)(=O)C1(c2cc(N3CCOC[C@H]3C)nc(-c3cccc4[nH]ccc34)n2)CCOCC1` [Example 3.21, 4-{4-[4-(Ethylsulfonyl)tetrahydro-2H-pyran-4-yl]-6-[(3R)-3-methylmorpholin-4-yl]pyrimidin-2-yl}-1H-indole], the IC50 on mTOR came to 0.686 µM; at ATR, 0.00689 µM.

With `CCS(=O)(=O)C1(c2cc(N3CCOC[C@H]3C)nc(-c3cccc4[nH]ccc34)n2)CCNCC1` [Example 3.22, 4-{4-[4-(Ethylsulfonyl)piperidin-4-yl]-6-[(3R)-3-methylmorpholin-4-yl]pyrimidin-2-yl}-1H-indole], the IC50 on mTOR worked out at 0.556 µM; at ATR, 0.00819 µM.

For the compound `CC(C)S(=O)(=O)C1(c2cc(N3CCOC[C@H]3C)nc(-c3cccc4[nH]ccc34)n2)CC1` [Example 3.23, 4-(4-{1-[(1-Methylethyl)sulfonyl]cyclopropyl}-6-[(3R)-3-methylmorpholin-4-yl]pyrimidin-2-yl)-1H-indole], the IC50 at mTOR amounted to 0.0891 µM; at ATR it was 0.00247 µM.

For the compound `CC(C)S(=O)(=O)C1(c2cc(N3CCOC[C@H]3C)nc(-c3cccc4[nH]ccc34)n2)CCOCC1` [Example 3.24, 4-(4-{4-[(1-Methylethyl)sulfonyl]tetrahydro-2H-pyran-4-yl}-6-[(3R)-3-methylmorpholin-4-yl]pyrimidin-2-yl)-1H-indole], the values for the concentration for half-maximal inhibition (IC50) on mTOR and at ATR were 6.15 µM and 0.261 µM, respectively.

In the case of `CC(C)S(=O)(=O)C1(c2cc(N3CCOC[C@H]3C)nc(-c3cccc4[nH]ccc34)n2)CCNCC1` [Example 3.25, 4-(4-{4-[(1-Methylethyl)sulfonyl]piperidin-4-yl}-6-[(3R)-3-methylmorpholin-4-yl]pyrimidin-2-yl)-1H-indole], the figures for the IC50 on mTOR and on ATR were 4.24 µM and 0.0206 µM, respectively.
